According to PubChem BioAssay (NCI):
Where “and” joins values, the source holds several entries; their conditions need not be identical. Equal values may be shown once.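 Exposure lasted 48 hours, with cells grown in 96-well plates and compounds tested at five concentrations. GI50 is the concentration that inhibits growth by half. The concentration for full growth arrest is given as TGI.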

Assays:
Assay in all cases: NCI anticancer screen, dose series, 48 h
HL-60(TB) leukemia = system: HL-60(TB) leukemia
HS 578T breast = system: HS 578T breast
MDA-MB-231 breast = system: MDA-MB-231 breast
NCI-H522 lung = system: NCI-H522 lung
OVCAR-8 ovarian = system: OVCAR-8 ovarian
SNB-19 CNS = system: SNB-19 CNS
SNB-75 CNS = system: SNB-75 CNS
TK-10 renal = system: TK-10 renal
U251 CNS = system: U251 CNS
UO-31 renal = system: UO-31 renal
HCC-2998 colon = system: HCC-2998 colon

| SMILES | TGI (HL-60(TB) leukemia) | TGI (HS 578T breast) [µM] | TGI (MDA-MB-231 breast) [µM] | TGI (NCI-H522 lung) | TGI (OVCAR-8 ovarian) | TGI (SNB-19 CNS) | TGI (SNB-75 CNS) | TGI (TK-10 renal) [µM] | TGI (U251 CNS) [µM] | TGI (UO-31 renal) | TGI (HCC-2998 colon) | GI50 (HS 578T breast) [µM] | GI50 (SNB-75 CNS) [µM] | GI50 (HCC-2998 colon) [µM] | GI50 (HL-60(TB) leukemia) [µM] | GI50 (NCI-H522 lung) [µM] | GI50 (OVCAR-8 ovarian) [µM] | GI50 (SNB-19 CNS) | GI50 (U251 CNS) [µM] |
| --- | --- | --- | --- | --- | --- | --- | --- | --- | --- | --- | --- | --- | --- | --- | --- | --- | --- | --- | --- |
| COC(=O)C1c2c(c3ccccc3n2C(=O)OC)CCN2CCC1C(S(=O)(=O)c1ccccc1)C2=O (centres undefined) | > 100 µM | > 100 | > 100 | > 100 µM | > 100 µM | > 100 µM | > 100 µM | > 100 | > 100 | > 100 µM | – | – | – | – | – | – | – | – | – |
| C=C(C)C1CC/C(C)=C/CC[C@]2(C)O[C@H]2CC/C(COC(C)=O)=C\[C@@H]1O (some centres undefined) | > 50 µM | > 50 | > 50 | > 50 µM | > 50 µM | > 50 µM | 15.2 µM | > 50 | > 50 | > 50 µM | > 50 µM | 8.27 | 0.625 | – | – | – | – | – | – |
| CCCCOC(=O)NC(Nc1cccc(C(F)(F)F)c1)(C(F)(F)F)C(F)(F)F | 56.2 µM | > 100 | > 100 | > 100 µM | > 100 µM | > 100 µM | > 100 µM | > 100 | > 100 | > 100 µM | – | – | – | – | – | – | – | – | – |
| CC1(C)CC(=O)C2=C(C1)NC1=C(C(=O)CC(C)(C)C1)C2c1ccc([N+](=O)[O-])cc1 | > 100 µM | > 100 | > 100 | > 100 µM | > 100 µM | > 100 µM | 69.6 µM | > 100 | > 100 | > 100 µM | > 100 µM | – | – | – | – | – | – | – | – |
| COP(=O)(Cc1ccccc1)Cc1ccccc1 | > 100 µM | > 100 | > 100 | > 100 µM | > 100 µM | – | > 100 µM | > 100 | > 100 | > 100 µM | > 100 µM | – | – | – | – | – | – | – | – |
| Cc1cc(-c2nc3ccccc3s2)ccc1N | > 90.3 µM | > 100 | > 88.2 | > 61.6 µM | > 89.3 µM | > 100 µM | > 88.8 µM | > 100 | > 88.5 | 88.3 µM | > 93 µM | – | – | – | – | – | – | – | – |
| COc1cc(C)cc2c1c(=O)c1ccccc1n2C | 83.3 µM | 78.9 | > 100 | > 100 µM | > 100 µM | > 100 µM | 99.4 µM | > 100 | 96.1 | – | > 100 µM | – | – | – | – | – | – | – | – |
| COc1cc(C2SC(N)=Nc3c2c(C)nn3C(=O)c2ccccc2O)ccc1O (centres undefined) | > 4.56 µM | > 10 | > 10 | > 10 µM | > 10 µM | > 10 µM | > 10 µM | > 10 | > 10 | > 10 µM | > 10 µM | – | – | – | – | – | – | – | – |
| COC1C(O)C(C)OC(OC2C(Oc3cccc4c(O)c5c(=O)oc6ccc(C)c7c(=O)oc(c34)c5c67)OC(C)C(O)C2O)C1O (centres undefined) | 27.4 µM and 6.95 µM | 20.4 | 8.67 | 2.74 µM and 3.67 µM | 52.8 µM and 5.65 µM | 26.6 µM and 14.4 µM | 12.6 µM and 7.14 µM | 21 | 11.9 | 36.5 µM and 18.9 µM | 4.56 µM and 7.81 µM | – | 3.15 | 1.1 | 4.08 | 0.747 | 1.65 | 0.632 µM and 1.21 µM | 0.543 |
| CCN(CC)CCCn1c(=O)c2ccccc2n2c3c(=O)n(C)c(=O)n(C)c3nc12 | 9.08 µM | 45.6 | 30.1 | 21.9 µM | 23.4 µM | 35.3 µM | 18.6 µM | 38.9 | 23.3 | 17.7 µM | 22 µM | – | – | – | – | – | – | – | – |
| C[C@]12Cc3cnn(-c4ccc(F)cc4)c3NC1CC[C@@H]1C2CC[C@@]2(C)C1CC[C@@H]2O (some centres undefined) | 11.8 µM | 26.5 | 46.9 | 25.4 µM | 27.9 µM | 56.1 µM | 13.3 µM | 34 | 21.7 | 22.5 µM | 18.3 µM | – | – | – | – | – | – | – | – |
| COc1cc(C(=O)O[C@@H]2[C@@H](OC(=O)c3cc(OC)c(OC)c(OC)c3)[C@@H](OC)O[C@@H]3CO[C@@H](c4ccccc4)O[C@@H]23)cc(OC)c1OC | > 100 µM | > 100 | > 100 | > 100 µM | > 100 µM | > 100 µM | > 100 µM | > 100 | > 100 | > 100 µM | > 100 µM | – | – | – | – | – | – | – | – |
| Brc1c(C#CCC(c2ccccc2)(c2ccccc2)c2ccccc2)ccc(C#CCC(c2ccccc2)(c2ccccc2)c2ccccc2)c1Br | > 100 µM | > 100 | > 100 | > 100 µM | > 100 µM | > 100 µM | > 100 µM | > 100 | > 100 | > 100 µM | > 100 µM | – | – | – | – | – | – | – | – |
| CC1(C)CC23CC(C)(C)c4cccc(c42)OCc2ccc4ccc5ccc(nc5c4n2)COc2cccc1c23 | > 50 µM | > 50 | > 50 | > 50 µM | > 50 µM | > 5 µM | > 50 µM | > 50 | > 50 | > 50 µM | > 50 µM | – | – | – | – | – | – | – | – |
